# Experimental data published in patent publication US12467038B2, “Methods of culturing human pluripotent cells” (Hadasit Medical Research Services and Development Ltd., priority 2019, dated 2025).
# Legend:
# Format in all cases: cell-based, human
# [1] = tested on: LN-hPSCs; assay: Signaling pathways analysis, phase-contrast colony morphology
# Method: (§1) Signaling pathways analysis—hPSCs were cultured on LN111 for 2 days in complete medium, and then for additional 3-5 days in a medium+/−FGF2 in the presence of the following small molecules: PD032590 1 μM (Peprotech), LY294002 10 μM, SB431542 10 μM, CHIR99021 3 μM (all from Cayman Chemical, Michigan, USA), XAV939 2.5 μM (Peprotech), BMP4 50 ng/ml (Biogems-Peprotech).
# as §1, with “analysis-hPSCs” for “analysis—hPSCs”
# [2] = tested on: LN-hPSCs; assay: Signaling pathways analysis, Real-Time PCR of marker expression
# Method: as §1
# (§2) Real Time PCR analysis—A relative gene expression quantitation assay was performed by amplification of 50 ng cDNA by Real Time PCR, using ABI Prism 7900HT Sequence Detection System (Applied Biosystems (ABI), Foster City, Calif.), specific TaqMan® Gene Expression Assays and TaqMan Fast Universal PCR master Mix. Human β-glucuronidase (gusB) or human β-actin (actB) were used as endogenous gene references. Data was analyzed using the RQ Manager Software v1.2 (ABI). For global expression analysis of pluripotency and differentiation associated genes, 200 ng cDNA were subjected to Real Time PCR amplification using Applied Biosystems® TaqMan® Human Stem Cell Pluripotency Array (Cat. No. 4385344), and Taqman Gene Expression Master Mix. Array data was analyzed using the DataAssist Software v2.0 (ABI).
# as §1, with “analysis-hPSCs” for “analysis—hPSCs”
# as §2, with “of 25-50” for “of 50”, “by Real-Time” for “by Real Time”, “and TaqMan®” for “and TaqMan”, “PCR Master Mix (All from Invitrogen).” for “PCR master Mix.”, “to Real-time” for “to Real Time”
# [3] = tested on: LN-hPSCs; assay: Immunofluorescence staining after WNT activation; settings: upon WNT activation with CHIR
# Method: as §1
# Immunofluorescence staining: 4-6 day hESC colonies were fixed with 4% paraformaldehyde for 20 min at RT, permeabilized and blocked with 0.2% Triton X100 (Sigma-Aldrich), 5% normal goat/donkey serum (Biological industries, Beit Haemek, Israel) in PBS for 45 min, and incubated 1 hour at RT with the following primary antibodies: mouse IgG2b anti-human Oct4 (1:50; Cat. No. SC5279, Santa Cruz Biotechnology Inc., USA), goat polyclonal IgG anti-human FGF5 (1:250; Cat. No. AF-237-NA, R&D Systems, Minneapolis, Minn., USA), Rabbit polyclonal IgG anti-GFP (1:250; Cat. No. A11122, Invitrogen), goat polyclonal IgG anti-Brachyury (1:150; Cat. No. AF-2085, R&D Systems), and goat polyclonal IgG anti-human OTX2 (1:50; Cat. No. AF-1979, R&D Systems). […]
# [4] = tested on: hPSCs; assay: Undifferentiated propagation and PGC differentiation of hPSCs on laminin; settings: HES-1 hPSCs
# Method: LN-hPSCs were cultured on mouse LN111, 3-D Culture Matrix Laminin I (CULTREX, TREVIGEN, #3446-005-01, Gaithersburg, Md., USA). 0.175 ml diluted LN111 (1:14 to a coating concentration of 0.43 mg/ml) was used to coat a well of a 6-well culture dish, leaving a margin of 2-3 mm at the well edge (a final concentration of ˜8 microgram/cm^2). The coated dishes were incubated from 4 hours to 4 days, at 37° C., and washed with PBS before use. LN-hPSCs were cultured in a medium composed of DMEM/F12, B27 supplement (1:50), N2 supplement (1:100), 2 mM L-glutamine, 50 units/ml penicillin, 50 μg/ml streptomycin (all from Invitrogen), and supplemented daily with 20 ng/ml FGF2 (Peprotech). Cells were passaged every 5-6 days using 1.5 mg/ml collagenase type IV (Invitrogen). 5 μM ROCK inhibitor (Y-27632, Peprotech) was added for the first day after passaging.
# hPSCs were cultured on human recombinant LN521 (BIOLAMINA, Sundbyberg, Sweden). Coating of culture dishes with hrLN521 was performed according to the manufacturer's instructions (Coating concentration ˜0.45 microgram/cm^2). Cells were cultured in the same medium used for culturing LN-hPSCs, and passaged with collagenase type IV.
# PGC differentiation of hPSCs in suspension—LN-hPSCs and hPSCs cultured on hrLN-521 were dissociated into a single-cell suspension using TrypLE Select Enzyme (Invitrogen). Primed hPSCs were first dissociated from the MEF feeders by treatment with collagenase type IV, followed by dissociation into single cells by TrypLE Select Enzyme. 2000-3000 cells were seeded into a microwell of AggreWell™800 24-well plate (STEMCELL Technologies), and cultured as EBs in suspension, in PGCLC differentiation medium as described elsewhere (Irie et al., 2015).
# [5] = tested on: LN-hPSCs; assay: FACS analysis of pluripotency cell-surface markers; settings: basic medium supplemented with FGF2, XAV939 2.5 μM
# Method: Signaling pathways analysis—hPSCs were cultured on LN111 for 2 days in complete medium, and then for additional 3-5 days in a medium+/−FGF2 in the presence of the following small molecules: PD032590 1 μM (Peprotech), LY294002 10 μM, SB431542 10 μM, CHIR99021 3 μM (all from Cayman Chemical, Michigan, USA), XAV939 2.5 μM (Peprotech), BMP4 50 ng/ml (Biogems-Peprotech). FACS analysis—FACS analyses were performed using the following primary antibodies: mouse IgM anti-TRA-1-60 (1:100; mab4360, R&D), and mouse IgM anti-TRA-1-81 (1:100; mab4381, R&D), and Rat IgM anti-SSEA-3. Staining with respective isotype control antibodies (all from eBiosciences) served as controls. Detection of primary antibodies was performed using the following secondary antibodies: FITC-conjugated Polyclonal Goat Anti-Mouse Immunoglobulins (1:100; Dako, Glostrup, Denmark), APC-conjugated Goat anti-Mouse IgM/G (1:200; Cat. No. 1020-11, SouthernBiotech, Birmingham, Ala., USA), and APC-conjugated anti-Rat (1:200; eBioscience). FACS analysis was performed on a FACScalibur system (Becton-Dickinson, San Jose, Calif.) using the Cellquest software. A detailed FACS procedure is described elsewhere. FACS analysis—FACS analyses for pluripotency marker expression were performed using mouse anti-TRA-1-60 (1:100; mab4360, R&D), and mouse anti-TRA-1-81 (1:100; mab4381, R&D). […]
# [6] = medium depleted for FGF2, in the presence of the inhibitor, five days
compound,measurement,setting,value
O=C(NOC[C@H](O)CO)c1ccc(F)c(F)c1Nc1ccc(I)cc1F [PD032590],differentiation as evidenced by changes in cell morphology,[1]; [6],Differentiation was observed
same,Oct4 and Nanog expression levels,[2]; [6],significant down-regulation
"Cc1c[nH]c(-c2cnc(NCCNc3ccc(C#N)cn3)nc2-c2ccc(Cl)cc2Cl)n1 [CHIR, CHIR99021]",T-positive cells (immunostaining),[3],expressed in the majority of the cells
same,LN-hPSC colony morphology,[1]; 3 days in the presence of CHIR,appeared differentiated
same,"expression of PS and mesendodermal markers T, SOX17, and GSC",[2]; 3 days in the presence of CHIR,up-regulation
same,"expression of core pluripotency TFs Oct4, Nanog and SOX2 as well as OTX2",[2]; 3 days in the presence of CHIR,down-regulation
same,expression of early ecdodermal marker PAX6,[2]; 3 days in the presence of CHIR,down-regulated
NC(=O)c1ccc(-c2nc(-c3ccc4c(c3)OCO4)c(-c3ccccn3)[nH]2)cc1 [SB431542],colony morphology,[1]; FGF2 depleted from the medium,the colonies including the margins differentiated
same,colony morphology,"[1]; medium containing FGF2, 5 d",appeared differentiated
same,Oct4 and Nanog expression levels,[2]; FGF2 depleted from the medium,strongly reduced
same,Nanog expression,"[2]; medium containing FGF2, 5 d",drastically reduced
same,Oct4 levels,"[2]; medium containing FGF2, 5 d",moderately down-regulated
"hrLN521: human recombinant LN521 (BIOLAMINA), coating of culture dishes",competence to initiate germ cell specification,[4],competent to initiate germ cell specification
same,undifferentiated propagation of hPSCs expressing markers of pluripotency and early post-implantation epiblast,[4],supports the undifferentiated propagation
"BMP4: BMP4 50 ng/ml (Biogems-Peprotech), conserved role in germ cell specification",expression of early PGC TFs PRDM1 (BLIMP1) and TFAP2C,[2]; BMP4 treatment,induced the expression
same,expression of formative pluripotency TFs OTX2 and FOXD3,[2]; BMP4 treatment,down-regulation
Oc1nc(-c2ccc(C(F)(F)F)cc2)nc2c1CSCC2 [XAV939],percentages of cells expressing TRA-1-60,[5],did not affect
same,LN-hPSC colonies morphology,"[1]; basic medium supplemented with FGF2, XAV939 2.5 μM",did not affect
